Measurements taken from patent US8673964B2, “Use of drug combinations for treating insulin resistance” (DiaMedica Inc., priority 2004, dated 2014).
“And” between values parts separate entries of the source, which are not always exact repeats. Equal values may be shown once.

Assays:
[1] = test system: Rats with Insulin Resistance Produced by Hepatic Denervation; experiment: RIST in rats with insulin resistance produced by hepatic denervation; type: in vivo
Protocol: Methodology—All animals are 24 hour fasted. The animals are prepared using the standard RIST surgical preparation. The rats are anaesthetized with an intraperitoneal injection of sodium pentobarbital (65 mg kg-1; Somnotol, MTC Pharmaceuticals, Ont). Maintained anesthesia is achieved throughout the experiment by a continuous infusion of pentobarbital sodium (0.5 mg·ml-1 saline given at 50 μl·min-1) through a cannula in the jugular vein, supplemented with a 0.65 mg (0.01 ml) bolus injection when required. The rats are placed on a temperature-controlled surgical table (Harvard Apparatus, Kent, England) and rectal temperature is monitored and held at 37-37.5° C. Spontaneous respiration is allowed through a tracheal tube.
An arterial-venous shunt is established, as previous described (Lautt W W et al. Can J Physiol Pharmacol. 1998; 76 (12): 1080-6), for monitoring mean arterial blood pressure (MAP), blood glucose level and for drug delivery. Briefly, two catheters (polyethylene tubing PE60), one inserted into the right femoral artery and the other into the right femoral vein, are connected to the two openings of a three way vascular circuit consisting of a T tube connected with silicon tubing. The third opening of the circuit is connected to a pressure transducer for the recording of the shunt pressure which, when the silicon tubing toward the venous side of the circuit is closed by clamping, represented the systemic arterial blood pressure. Blood samples are taken from the arterial side of the shunt for the glucose measurement. […]
A control RIST is performed as previously described (Lautt W W et al. Can J Physiol Pharmacol. 1998; 76 (12): 1080-6). […] The baseline glucose levels are then determined by samples taken at 5-min intervals and continued until three successive stable determinations were made. […] After 1-min of insulin infusion, the first test glucose sample is determined and a variable glucose infusion (10%) is initiated. […]

sucrose fed rats = experiment: Rapid insulin sensitivity test (RIST): meal induced insulin sensitization in control diet and sucrose fed rats; type: in vivo, Sprague Dawley rats; settings: individual animals
Protocol: Animal Groups—Male Sprague Dawley rats having a starting weight of ≧220.0 g (Charles River, St. Constant, Quebec, Canada) were fed a normal rat chow diet and regular tap water, with and without the exposure to a 35% liquid sucrose solution for a 2 week period. Six groups of animals were established under the following treatments: […] (2) control diet, bethanechol (0.5 μg/kg ipv) and N-acetyl-L-cysteine (200 mg/kg) treatment (n=8); (3) control diet, bethanechol (0.5 μg/kg ipv) (n=5); (4) control diet, N-acetyl-L-cysteine (200 mg/kg) (n=4); (5) sucrose diet, saline treatment (n=4); (6) sucrose diet, bethanechol (0.5 μg/kg ipv) and N-acetyl-L-cysteine (200 mg/kg) treatment (n=5); (7) sucrose diet, bethanechol (0.5 μg/kg ipv) (n=6); and (8) sucrose diet, N-acetyl-L-cysteine (200 mg/kg) (n=3). Methodology—All animals are 24 hour fasted. The animals are prepared using the standard RIST surgical preparation. The rats are anaesthetized with an intraperitoneal injection of sodium pentobarbital (65 mg kg-1; Somnotol, MTC Pharmaceuticals, Ont). […] The rats are placed on a temperature-controlled surgical table (Harvard Apparatus, Kent, England) and rectal temperature is monitored and held at 37-37.5° C. Spontaneous respiration is allowed through a tracheal tube. An arterial-venous shunt is established, as previous described (Lautt W W et al. Can J Physiol Pharmacol. 1998; 76 (12): 1080-6), for monitoring mean arterial blood pressure (MAP), blood glucose level and for drug delivery. Briefly, two catheters (polyethylene tubing PE60), one inserted into the right femoral artery and the other into the right femoral vein, are connected to the two openings of a three way vascular circuit consisting of a T tube connected with silicon tubing. The third opening of the circuit is connected to a pressure transducer for the recording of the shunt pressure which, when the silicon tubing toward the venous side of the circuit is closed by clamping, represented the systemic arterial blood pressure. Blood samples are taken from the arterial side of the shunt for the glucose measurement. Flowing blood within the shunt assures the real time measurement of the blood glucose concentration, which is essential for the euglycemic clamp test as mentioned below. An infusion line is inserted into the venous side of the loop for drug delivery. Another infusion line connected to the jugular vein is established for glucose infusion. Animals are heparinized (100 IU·kg-1) to prevent clotting in the vascular loop. […] A control RIST is performed as previously described (Lautt W W et al. Can J Physiol Pharmacol. 1998; 76 (12): 1080-6). […] The baseline glucose levels are then determined by samples taken at 5-min intervals and continued until three successive stable determinations were made. […]

## CC(=O)N[C@@H](CS)C(=O)O [NAC, N-acetyl-L-cysteine]
[1]; NAC (200 mg/mL) infusion into the portal vein 0.1 mL/min for 2 minutes
  RIST index after surgical hepatic denervation: reversal of the insulin resistance
Sucrose fed rats; Control Diet, N-acetyl-L-cysteine 200 mg/kg alone
  percent potentation of RIST as compared to control: 33.5% and 27.39% and 57.25% and 1.89%
Sucrose fed rats; Sucrose Diet, N-acetyl-L-cysteine 200 mg/kg alone
  percent potentation of RIST as compared to control: 3% and −13.85% and −2.63%

## CC(C[N+](C)(C)C)OC(N)=O (stereo not shown) [Bethanechol, bethanechol]
[1]; bethanechol infusion into the portal vein 2.5 mg/kg/min from 10 minutes prior to insulin, entire test period
  RIST index after surgical hepatic denervation: reversal of the insulin resistance
Sucrose fed rats; Control Diet, bethanechol 0.5 μg/kg ipv alone, listed as BCH
  percent potentation of RIST as compared to control: 9.06% and 15.19% and 35.62% and 33.87% and 60.33%
Sucrose fed rats; Sucrose Diet, bethanechol 0.5 μg/kg ipv alone, listed as BCH
  percent potentation of RIST as compared to control: 45.59% and 13.22% and −13.22% and 14.22% and 7.71% and 22.36%

## [NH-]c1c[n+](N2CCOCC2)no1 [SIN-1, 3-morpholinosyndnonimine]
[1]; SIN-1 infusion into the portal vein 10.0 mg/kg/min for 2 minutes
  RIST index after surgical hepatic denervation: reversal of the insulin resistance
